Laboratory results published in US9980927B2, “Use of tapentadol for inhibiting and/or treating depression and anxiety” (Gruenenthal GmbH, priority 2011, dated 2018).

System: patients with inadequately managed, severe chronic low back pain with or without a neuropathic pain component
Experiment: Hospital Anxiety and Depression Scale (HADS) anxiety score; open-label phase IIIb trial, tapentadol prolonged release 50-250 mg bid for up to 12 weeks
Type: in vivo, human patients
Details: for HADS anxiety score, course: Baseline to Week 12
Method: As used herein, the “anxiety score” is a value determining the degree of the […]. The scale of anxiety scores covers the range from 0 to 21, wherein the degree of the anxiety is high in case of high values and low in case of low values. In a group of tested subjects, typically the mean or mediate values of anxiety scores are determined and referred to. The mean value is the sum of all anxiety scores divided by the number of subjects. The mediate value is the middle anxiety score in the set of determined scores. Preferably, the “anxiety score” is defined as in the experimental section.
A subgroup suffering from neuropathic pain due to lumbar radiculopathy was also investigated.
This was a multicenter, multinational, open-label, effectiveness phase IIIb trial to evaluate effectiveness and safety of tapentadol prolonged release treatment in patients with inadequately managed, severe chronic low back pain with or without a neuropathic pain component. Patients taking WHO Step II analgesics discontinued those analgesics before starting study medication; patients taking Step I analgesics and/or centrally acting co-analgesics continued on the same dose. […] All patients received tapentadol prolonged release (50-250 mg bid) for up to 12 weeks (5-week titration period and a 7-week maintenance period). Tapentadol immediate release (IR) 50 mg (twice a day, hours apart) was permitted (combined total daily dose of tapentadol prolonged release and tapentadol IR, 500 mg/day). The primary efficacy endpoint was the change from Baseline to Week 6 (when tapentadol prolonged release doses were stable) in average pain intensity on the 11-point NRS-3 using the last observation carried forward (LOCF) for imputing missing scores. The painDETECT questionnaire was used to evaluate the likelihood of a neuropathic pain component of low back pain; patients were classified as painDETECT “negative,” “unclear,” or “positive.” The population of patients classified as painDETECT negative was limited to approximately 30% of the total population.
In the painDETECT positive trial population the “diagnosis of lumbar radiculopathy” was evaluated which was defined per study protocol according following criteria: • typical dermatomal pain (radiating beyond the knee towards the foot, pain evoked by stretching within distribution of the ischiadic/femoral nerve) • signs of root dysfunction: • such as sensory impairment, motor symptoms from compression of lumbar nerve root (L4, L5, S1). • and/or absent or diminished quadriceps femoris or triceps surae reflexes. • and/or quantitative sensory testing (QST) deficit and pain distribution present in the same dermatomal area.
All subjects completed Short Form-36 (SF-36) and EuroQol-5 Dimension (EQ-5D) questionnaires and the Hospital Anxiety and Depression Scale (HADS). The Patient Global Impression of Change (PGIC) and Clinical global impression of change (CGIC) were also used as secondary endpoints. For both tests, patients completed the statement, “since I began trial treatment, I would rate my overall condition as,” using 7 possible responses (“very much worse” to “very much improved”). Adverse events were recorded throughout the trial.
In the following • (i) N is the number of subjects of the specified diagnosis group, • (ii) n is the number of subjects with data available, • (iii) “Mean” is the mean score of the subjects, i.e. the sum of all scores is divided by the number of subjects, • (iv) SD is the standard deviation, • (v) “Median” is the median score of the subjects, i.e. the middle score in the set of scores, • (vi) “Range” is the range of scores of the subjects, i.e. the range defined by the lowest and the highest score of the set of scores. First, the depression scores are presented. The total number of subjects in the clinical study: N=175

[1] = Visit 1, defined neuropathic pain N=85
[2] = Visit 1, positive diagnosis of lumbar radiculopathy-neuropathic pain subset N=44
[3] = Visit 1, presumed neuropathic pain component N=41
[4] = Visit 1, presumed or defined neuropathic pain component N=126
[5] = Visit 1, subjects with nociceptive pain N=49
[6] = Visit 5, defined neuropathic pain N=85
[7] = Visit 5, positive diagnosis of lumbar radiculopathy-neuropathic pain subset N=44
[8] = Visit 5, presumed neuropathic pain component N=41
[9] = Visit 5, presumed or defined neuropathic pain component N=126
[10] = Visit 5, subjects with nociceptive pain N=49
[11] = Visit 6, defined neuropathic pain N=85
[12] = Visit 6, positive diagnosis of lumbar radiculopathy-neuropathic pain subset N=44
[13] = Visit 6, presumed neuropathic pain component N=41
[14] = Visit 6, presumed or defined neuropathic
[15] = Visit 6, presumed or defined neuropathic pain component N=126
[16] = Visit 6, subjects with nociceptive pain N=49
[17] = Visit 7, defined neuropathic pain N=85
[18] = Visit 7, positive diagnosis of lumbar radiculopathy-neuropathic pain subset N=44
[19] = Visit 7, presumed neuropathic pain component N=41
[20] = Visit 7, presumed or defined neuropathic pain component N=126
[21] = Visit 7, subjects with nociceptive pain N=49
[22] = Visit 8, defined neuropathic pain N=85

CC[C@@H](c1cccc(O)c1)[C@@H](C)CN(C)C [tapentadol, (−)-(1R,2R)-3-(3-dimethylamino-1-ethyl-2-methyl-propyl)-phenol]
HADS anxiety score, course (painDETECT negative): not significantly | HADS anxiety score, course (painDETECT unclear/positive, P<0.0001 at Visit 12): improved steadily | HADS anxiety score, course (positive diagnosis of lumbar radiculopathy-neuropathic pain subset, p=0.0105 at Visit 12): improved steadily | Anxiety score Mean (SD) [1]: 8.3 (4.01) | Anxiety score Median [1]: 8.0 | Anxiety score Mean (SD) [2]: 8.7 (3.64) | Anxiety score Median [2]: 9.0 | Anxiety score Mean (SD) [3]: 7.9 (4.52) | Anxiety score Median [3]: 7.0 | Anxiety score Mean (SD) [4]: 8.2 (4.16) | Anxiety score Median [4]: 8.0 | Anxiety score Mean (SD) [5]: 5.9 (4.19) | Anxiety score Median [5]: 6.0 | Anxiety score Mean (SD) (Visit 1, total subjects N=175): 7.6 (4.28) | Anxiety score Median (Visit 1, total subjects N=175): 7.0 | Anxiety score Mean (SD) [6]: 7.2 (3.89) | Anxiety score Median [6]: 8.0 | Anxiety score Mean (SD) [7]: 6.8 (3.39) | Anxiety score Median [7]: 7.5 | Anxiety score Mean (SD) [8]: 6.7 (4.22) | Anxiety score Median [8]: 7.0 | Anxiety score Mean (SD) [9]: 7.0 (3.98) | Anxiety score Median [9]: 7.0 | Anxiety score Mean (SD) [10]: 6.1 (3.80) | Anxiety score Median [10]: 5.0 | Anxiety score Mean (SD) (Visit 5, total subjects N=175): 6.8 (3.94) | Anxiety score Median (Visit 5, total subjects N=175): 7.0 | Anxiety score change from baseline Mean (SD) (Visit 6): −1.6 (3.58) | Anxiety score change from baseline Median (Visit 6): −1.0 | Anxiety score change from baseline Mean (SD) (Visit 6, defined neuropathic): −1.4 (3.44) | Anxiety score change from baseline Median (Visit 6, defined neuropathic): −1.0 | Anxiety score Mean (SD) [11]: 6.9 (3.66) | Anxiety score Median [11]: 6.0 | Anxiety score change from baseline Mean (SD) (Visit 6, lumbar radiculopathy): −1.4 (3.88) | Anxiety score change from baseline Median (Visit 6, lumbar radiculopathy): −0.5 | Anxiety score change from baseline Mean (SD) (Visit 6, nociceptive): −0.3 (2.93) | Anxiety score change from baseline Median (Visit 6, nociceptive): 0.0 | Anxiety score Mean (SD) [12]: 7.1 (3.46) | Anxiety score Median [12]: 7.5 | Anxiety score Mean (SD) [13]: 6.9 (3.99) | Anxiety score Median [13]: 6.0 | Anxiety score change from baseline Mean (SD) [14]: −1.5 (3.47) | Anxiety score change from baseline Median [14]: −1.0 | Anxiety score Mean (SD) [15]: 6.9 (3.75) | Anxiety score Median [15]: 6.0 | Anxiety score Mean (SD) [16]: 5.8 (4.68) | Anxiety score Median [16]: 5.0 | Anxiety score change from baseline Mean (SD) (Visit 6, total): −1.2 (3.36) | Anxiety score change from baseline Median (Visit 6, total): −1.0 | Anxiety score Mean (SD) (Visit 6, total subjects N=175): 6.6 (4.02) | Anxiety score Median (Visit 6, total subjects N=175): 6.0 | Anxiety score Mean (SD) [17]: 6.1 (3.91) | Anxiety score Median [17]: 6.0 | Anxiety score Mean (SD) [18]: 6.1 (3.85) | Anxiety score Median [18]: 6.0 | Anxiety score Mean (SD) [19]: 5.9 (4.08) | Anxiety score Median [19]: 5.5 | Anxiety score Mean (SD) [20]: 6.0 (3.95) | Anxiety score Median [20]: 6.0 | Anxiety score Mean (SD) [21]: 5.6 (4.15) | Anxiety score Median [21]: 5.0 | Anxiety score Mean (SD) (Visit 7, total subjects N=175): 5.9 (3.99) | Anxiety score Median (Visit 7, total subjects N=175): 6.0 | Anxiety score change from baseline Mean (SD) (Visit 8): −2.9 (3.11) | Anxiety score change from baseline Median (Visit 8): −2.0 | Anxiety score change from baseline Mean (SD) (Visit 8, defined neuropathic): −2.2 (3.77) | Anxiety score change from baseline Median (Visit 8, defined neuropathic): −2.0 | Anxiety score Mean (SD) [22]: 6.0 (3.66) | Anxiety score Median [22]: 5.0 | Anxiety score change from baseline Mean (SD) (Visit 8, lumbar radiculopathy): −2.4 (4.23) | Anxiety score change from baseline Median (Visit 8, lumbar radiculopathy): −1.0 | Anxiety score change from baseline Mean (SD) (Visit 8, nociceptive): −0.7 (3.88) | Anxiety score change from baseline Median (Visit 8, nociceptive): −1.0 | Anxiety score Mean (SD) (Visit 8, positive diagnosis of lumbar radiculopathy-neuropathic pain subset N=44): 5.9 (3.74)
